Results published in patent US20150031572A1, “MEANS AND METHODS FOR ASSESSING NEURONAL TOXICITY” (priority 2012, published 2015).
Structures can show the parent of a compound that is named as a salt. Marks after values point to notes of the source that are not given here.

Experiment: Plasma metabolite profiling (GC-MS, LC-MS, SPE-LC-MS) of rats dosed once daily over 28 days; treatment ratios versus untreated control
Assay type: in vivo, rat
Experimental: A group of each 5 male and female rats was dosed once daily with the indicated compounds (see Table 10, below for compounds, applied doses and administration details) over 28 days.
Each dose group in the studies consisted of five rats per sex. Additional groups of each 5 male and female animals served as controls. Before starting the treatment period, animals, which were 62-64 days old when supplied, were acclimatized to the housing and environmental conditions for 7 days. All animals of the animal population were kept under the same constant temperature (20-24±3° C.) and the same constant humidity (30-70%). The animals of the animal population were fed ad libitum. The food to be used was essentially free of chemical or microbial contaminants. Drinking water was also offered ad libitum. Accordingly, the water was free of chemical and microbial contaminants as laid down in the European Drinking Water Directive 98/83/EG. The illumination period was 12 hours light followed by 12 hours darkness (12 hours light, from 6:00 to 18:00, and 12 hours darkness, from 18:00 to 6:00). […] The test substances (compounds) in the Tables 1 to 9 below were dosed and administered as described in the Table 10 above.
In the morning of day 7, 14, and 28, blood was taken from the retro-orbital venous plexus from fasted anaesthetized animals. From each animal, 1 ml of blood was collected with EDTA as anticoagulant. The samples were centrifuged for generation of plasma. All plasma samples were covered with a N2 atmosphere and then stored at −80° C. until analysis.
For mass spectrometry-based metabolite profiling analyses plasma samples were extracted and a polar and a non-polar (lipid) fraction was obtained. For GC-MS analysis, the non-polar fraction was treated with methanol under acidic conditions to yield the fatty acid methyl esters. Both fractions were further derivatised with O-methyl-hydroxyamine hydrochloride and pyridine to convert Oxogroups to O-methyloximes and subsequently with a silylating agent before analysis. In LC-MS analysis, both fractions were reconstituted in appropriate solvent mixtures. HPLC was performed by gradient elution on reversed phase separation columns. Mass spectrometric detection which allows target and high sensitivity MRM (Multiple Reaction Monitoring) profiling in parallel to a full screen analysis was applied as described in WO2003073464.
Steroids and their metabolites were measured by online SPE-LC-MS (Solid phase extraction-LC-MS).
Following comprehensive analytical validation steps, the data for each analyte were normalized against data from pool samples. These samples were run in parallel through the whole process to account for process variability. The significance of treatment group values specific for sex, treatment duration and metabolite was determined by comparing means of the treated groups to the means of the respective untreated control groups using WELCH-test and quantified with treatment ratios versus control and p-values.
The identification of the most important biomarkers per toxicity pattern was done by a ranking of the analytes in the tables below. Therefore the metabolic changes in reference treatments of a given pattern (shown in the table) were compared with changes of the same metabolite in other unrelated treatments. […] The maximum absolute value of the respective TVALUE was taken to indicate the most important metabolite for the pattern.

[1] = plasma, female rats, day 7, high dose, Table 9a
[2] = plasma, female rats, day 7, high dose, Table 9b
[3] = plasma, female rats, day 14, high dose, Table 9a
[4] = plasma, female rats, day 14, high dose, Table 9b
[5] = plasma, female rats, day 28, high dose, Table 9a
[6] = plasma, female rats, day 28, high dose, Table 9b
[7] = plasma, male rats, day 7, high dose, Table 9c
[8] = plasma, male rats, day 7, high dose, Table 9d
[9] = plasma, male rats, day 14, high dose, Table 9c
[10] = plasma, male rats, day 14, high dose, Table 9d
[11] = plasma, male rats, day 28, high dose, Table 9c
[12] = plasma, male rats, day 28, high dose, Table 9d
[13] = plasma, female rats, day 7, high dose, Table 5a
[14] = plasma, female rats, day 7, high dose, Table 5b
[15] = plasma, female rats, day 7, high dose, Table 6c
[16] = plasma, female rats, day 7, high dose, Table 6d
[17] = plasma, female rats, day 14, high dose, Table 5a
[18] = plasma, female rats, day 14, high dose, Table 5b
[19] = plasma, female rats, day 14, high dose, Table 6c
[20] = plasma, female rats, day 14, high dose, Table 6d
[21] = plasma, female rats, day 28, high dose, Table 5a
[22] = plasma, female rats, day 28, high dose, Table 5b
[23] = plasma, female rats, day 28, high dose, Table 6c
[24] = plasma, female rats, day 28, high dose, Table 6d

## O=C1CCCC(=O)C1C(=O)c1ccc(C(F)(F)F)cc1[N+](=O)[O-] [NTBC (HPPD-Inhibitor), NTBC]
[1]
  4-Hydroxyphenylpyruvate, ratio versus control: 245.75*
  Glycine, ratio versus control: 1.2*
  Phosphatidylcholine (C18:0,C18:2), ratio versus control: 1.03*
  Serine, ratio versus control: 1.38*
  TAG (C16:0,C18:2), ratio versus control: 1.62*
  TAG (C18:1,C18:2), ratio versus control: 2.45*
  TAG (C18:2,C18:2), ratio versus control: 1.91*
  Threonine, ratio versus control: 1.43*
  Tyrosine, ratio versus control: 37.75*
  gamma-Linolenic acid (C18:cis[6,9,12]3), ratio versus control: 1.34
[2]
  5-Oxoproline, ratio versus control: 0.5*
  Glutamine, ratio versus control: 0.54*
[3]
  4-Hydroxyphenylpyruvate, ratio versus control: 293.51*
  Glycine, ratio versus control: 1.33*
  Phosphatidylcholine (C18:0,C18:2), ratio versus control: 1
  Serine, ratio versus control: 1.48*
  TAG (C16:0,C18:2), ratio versus control: 1.37*
  TAG (C18:1,C18:2), ratio versus control: 2.22*
  TAG (C18:2,C18:2), ratio versus control: 1.92*
  Threonine, ratio versus control: 1.82*
  Tyrosine, ratio versus control: 50.64*
  gamma-Linolenic acid (C18:cis[6,9,12]3), ratio versus control: 1.61*
[4]
  5-Oxoproline, ratio versus control: 0.55*
  Glutamine, ratio versus control: 0.46*
[5]
  4-Hydroxyphenylpyruvate, ratio versus control: 276.92*
  Glycine, ratio versus control: 1.48*
  Phosphatidylcholine (C18:0,C18:2), ratio versus control: 1.05*
  Serine, ratio versus control: 1.43*
  TAG (C16:0,C18:2), ratio versus control: 1.44*
  TAG (C18:1,C18:2), ratio versus control: 1.51*
  TAG (C18:2,C18:2), ratio versus control: 1.31*
  Threonine, ratio versus control: 1.52*
  Tyrosine, ratio versus control: 38.31*
  gamma-Linolenic acid (C18:cis[6,9,12]3), ratio versus control: 1.55*
[6]
  5-Oxoproline, ratio versus control: 0.69*
  Glutamine, ratio versus control: 0.48*
[7]
  4-Hydroxyphenylpyruvate, ratio versus control: 364.14*
  Lysine, ratio versus control: 1.12
  Threonine, ratio versus control: 1.36*
  Tyrosine, ratio versus control: 56.14*
[8]
  5-Oxoproline, ratio versus control: 0.6*
  Citrulline, ratio versus control: 0.84*
  Glutamine, ratio versus control: 0.55*
  Phenylalanine, ratio versus control: 0.78*
[9]
  4-Hydroxyphenylpyruvate, ratio versus control: 435.77*
  Lysine, ratio versus control: 1.4*
  Threonine, ratio versus control: 1.51*
  Tyrosine, ratio versus control: 58.08*
[10]
  5-Oxoproline, ratio versus control: 0.61*
  Citrulline, ratio versus control: 0.88*
  Glutamine, ratio versus control: 0.57*
  Phenylalanine, ratio versus control: 0.77*
[11]
  4-Hydroxyphenylpyruvate, ratio versus control: 366.39*
  Lysine, ratio versus control: 1.46*
  Threonine, ratio versus control: 1.54*
  Tyrosine, ratio versus control: 52.56*
[12]
  5-Oxoproline, ratio versus control: 0.6*
  Citrulline, ratio versus control: 0.83*
  Glutamine, ratio versus control: 0.58*
  Phenylalanine, ratio versus control: 1.02

## OCCOCCN1CCN(C2=Nc3ccccc3Sc3ccccc32)CC1 [Quetiapine fumarate]
[13]
  3-Hydroxybutyrate, ratio versus control: 1.49*
  Histidine, ratio versus control: 1.31*
  Isoleucine, ratio versus control: 1.9*
  Leucine, ratio versus control: 1.98*
  Valine, ratio versus control: 1.49*
[14]
  4-Hydroxy-3-methoxyphenylglycol (HMPG), ratio versus control: 0.73*
  Glucose, ratio versus control: 0.94
  Lactate, ratio versus control: 0.45*
  Malate, ratio versus control: 0.67*
  Metanephrine, ratio versus control: 0.55*
  Pyruvate, ratio versus control: 0.37*
  Uric acid, ratio versus control: 0.92
[15]
  4-Hydroxysphinganine (t18:0, Phytosphingosine), total, ratio versus control: 1.03
  Docosahexaenoic acid (C22:cis[4,7,10,13,16,19]6), ratio versus control: 1.67*
  Docosapentaenoic acid (C22:cis[7,10,13,16,19]5), ratio versus control: 1.98*
  Phosphatidylcholine (C16:0,C16:0), ratio versus control: 1.11*
  Phosphatidylcholine No 02, ratio versus control: 1.05
  TAG (C16:0,C16:1), ratio versus control: 2.83*
  TAG (C16:0,C18:2), ratio versus control: 2.65*
  TAG (C18:2,C18:2), ratio versus control: 1.99*
  TAG (C18:2,C18:3), ratio versus control: 1.83*
  TAG (C18:3,C18:2,C18:1), ratio versus control: 2.04*
  TAG No 059, ratio versus control: 2.1*
[16]
  4-Hydroxyphenylpyruvate, ratio versus control: 0.61*
  Glycine, ratio versus control: 0.82*
  Lactate, ratio versus control: 0.45*
  Lysophosphatidylcholine (C16:0), ratio versus control: 0.97*
  Uric acid, ratio versus control: 0.92
[17]
  3-Hydroxybutyrate, ratio versus control: 1.55*
  Leucine, ratio versus control: 1.44*
  Valine, ratio versus control: 1.24*
[18]
  4-Hydroxy-3-methoxyphenylglycol (HMPG), ratio versus control: 0.67*
  Glucose, ratio versus control: 0.87*
  Lactate, ratio versus control: 0.61*
  Malate, ratio versus control: 0.66*
  Metanephrine, ratio versus control: 0.26*
  Pyruvate, ratio versus control: 0.33*
  Uric acid, ratio versus control: 0.64*
[19]
  Docosahexaenoic acid (C22:cis[4,7,10,13,16,19]6), ratio versus control: 1.58*
  Docosapentaenoic acid (C22:cis[7,10,13,16,19]5), ratio versus control: 2.01*
  Palmitic acid (C16:0), ratio versus control: 1.24*
  Phosphatidylcholine (C16:0,C16:0), ratio versus control: 1.2*
  TAG (C16:0,C16:1), ratio versus control: 2.16*
  TAG (C16:0,C18:1,C18:3), ratio versus control: 1.52*
  TAG (C16:0,C18:2), ratio versus control: 1.82*
  TAG (C18:2,C18:2), ratio versus control: 1.5*
  TAG (C18:3,C18:2,C18:1), ratio versus control: 1.63*
  TAG No 059, ratio versus control: 2.21*
[20]
  4-Hydroxyphenylpyruvate, ratio versus control: 0.62*
  Glycine, ratio versus control: 0.71*
  Lactate, ratio versus control: 0.61*
  Lysophosphatidylcholine (C16:0), ratio versus control: 0.98*
  Uric acid, ratio versus control: 0.64*
[21]
  3-Hydroxybutyrate, ratio versus control: 2.04*
  Galactose, lipid fraction, ratio versus control: 1.21
  Glutamine, ratio versus control: 1.31*
  Isoleucine, ratio versus control: 1.3*
  Leucine, ratio versus control: 1.27*
[22]
  4-Hydroxy-3-methoxyphenylglycol (HMPG), ratio versus control: 0.8
  Glucose, ratio versus control: 0.85*
  Lactate, ratio versus control: 0.46*
  Malate, ratio versus control: 0.55*
  Metanephrine, ratio versus control: 0.38*
  Pyruvate, ratio versus control: 0.36*
  Uric acid, ratio versus control: 0.68*
[23]
  4-Hydroxysphinganine (t18:0, Phytosphingosine), total, ratio versus control: 1.12
  Docosahexaenoic acid (C22:cis[4,7,10,13,16,19]6), ratio versus control: 1.24*
  Docosapentaenoic acid (C22:cis[7,10,13,16,19]5), ratio versus control: 1.76*
  Galactose, lipid fraction, ratio versus control: 1.21
  Phosphatidylcholine (C16:0,C16:0), ratio versus control: 1.07
  Phosphatidylcholine (C16:0,C20:5), ratio versus control: 1.1*
  Phosphatidylcholine (C16:1,C18:2), ratio versus control: 1.07
  Phosphatidylcholine No 02, ratio versus control: 1.31*
  TAG (C16:0,C16:1), ratio versus control: 2.14*
  TAG (C16:0,C18:1,C18:3), ratio versus control: 2.06*
  TAG (C16:0,C18:2), ratio versus control: 1.84*
  TAG (C18:2,C18:3), ratio versus control: 1.93*
  TAG (C18:3,C18:2,C18:1), ratio versus control: 1.27*
  TAG No 059, ratio versus control: 1.48*
[24]
  4-Hydroxyphenylpyruvate, ratio versus control: 0.36*
  Glycine, ratio versus control: 0.86*
  Lactate, ratio versus control: 0.46*
  Lysophosphatidylcholine (C16:0), ratio versus control: 0.97*
  Uric acid, ratio versus control: 0.68*
rat, in vivo
  4-Hydroxysphinganine (t18:0, Phytosphingosine), total, ratio versus control: 1.46*
  Isoleucine, ratio versus control: 1.46*
  Phosphatidylcholine No 02, ratio versus control: 1.17*
  TAG (C16:0,C18:1,C18:3), ratio versus control: 1.41*
  TAG (C18:2,C18:2), ratio versus control: 1.41*
  TAG (C18:2,C18:3), ratio versus control: 1.37*
  Valine, ratio versus control: 1.12*
